Reference: article PMC5312080 (mBio, 2017)
Converted amounts (≈) assume the structure as drawn.

Columns and labels:
[1] = test system: M. tuberculosis H37Rv; assay: Microdilution alamarBlue assay (MABA) MIC; type: cell-based; details: Mycobacterium tuberculosis
[2] = in vitro; details: African green monkey
[3] = test system: M. tuberculosis H37Rv; assay: Checkerboard alamarBlue compound interaction assay; type: cell-based, Mycobacterium tuberculosis; details: for FIC: FIC of the anti-TB drug in combination with DG70; for MIC: Mycobacterium tuberculosis, H37RV, drug alone, checkerboard; for MIC In combination: anti-TB drug in combination with DG70; for FIC category / FIC index (∑FIC): combination of the named drug with DG70
[4] = test system: BCG; type: cell-based, Mycobacterium bovis BCG
[5] = test system: ATP synthesis in BCG; type: cell-based, Mycobacterium bovis BCG
[6] = test system: mycobacterial oxygen consumption; assay: Oxygen consumption, methylene blue decolorization; type: cell-based
[7] = Table S2, parent H37Rv, read-out: MIC in Mtb H37Rv
[8] = whole-cell activity versus M. tuberculosis, […], read-out: MIC

Structure (SMILES) | MIC [1, 7] [µg/mL] | MIC [1, 8] [µg/mL] | CC50 [2] [µg/mL] | FIC [3] | MIC [3] [µM] | MIC In combination [3] [µM] | FIC category [3] | FIC index (∑FIC) [3] | further results
COc1ccc(-c2cc(NC(=O)c3ccccc3)ccc2OC)cc1 [JSF-2912] | 9.6 (≈ 28.8 µM) | 9.6 (≈ 28.8 µM) | > 80 |  |  |  |  |  | 
COc1ccc(NC(=O)c2ccc(F)cc2Cl)cc1 [JSF-2926] | 9.6 (≈ 34.3 µM) | 9.6 (≈ 34.3 µM) | > 70 |  |  |  |  |  | 
COc1ccc(-c2cc(N(C)C(=O)c3ccc(F)cc3Cl)ccc2OC)cc1 [JSF-2949] | 39.5 (≈ 98.8 µM) | 39 (≈ 97.5 µM) | 24 (≈ 60 µM) |  |  |  |  |  | 
O=C(Nc1ccc(O)c(-c2ccc(O)cc2)c1)c1ccc(F)cc1Cl [JSF-2950] | 39.5 (≈ 110 µM) | 39 (≈ 109 µM) | 50 (≈ 140 µM) |  |  |  |  |  | 
COc1ccc(-c2cc(NCc3ccc(F)cc3Cl)ccc2OC)cc1 [JSF-2951] | 77 (≈ 207 µM) | 77 (≈ 207 µM) | > 50 |  |  |  |  |  | 
COc1ccc(NC(=O)c2ccc(F)cc2Cl)cc1-c1ccccc1 [JSF-2971] | 9.6 (≈ 27 µM) | 9.6 (≈ 27 µM) | > 50 |  |  |  |  |  | 
O=[N+]([O-])c1cn2c(n1)OC[C@@H](OCc1ccc(OC(F)(F)F)cc1)C2 [PA824] |  |  |  | 1.0 | 0.1 | 0.1 | additive (>0.5 to ≤1, additive) | 1.0 | regrowth after [4]: 10 days; time of treatment to sterile cultures (no CFU detected) [4]: 10 days
CO[C@H]1/C=C/O[C@@]2(C)Oc3c(C)c(O)c4c(O)c(c(/C=N/N5CCN(C)CC5)c(O)c4c3C2=O)NC(=O)/C(C)=C\C=C\[C@H](C)[C@H](O)[C@@H](C)[C@@H](O)[C@@H](C)[C@H](OC(C)=O)[C@@H]1C [RIF, rifampin] |  |  |  | 0.25 | 0.02 | 0.005 | synergistic (≤0.5, synergistic) | 0.5 | 
CSc1ccc2c(c1)N(CCC1CCCCN1C)c1ccccc1S2 (stereo not shown) [THZ, thioridazine] |  |  |  | 0.5 | 6.25 | 3.12 | additive (>0.5 to ≤1, additive) | 0.7 | effect of MK4 supplementation on inhibition of ATP synthesis [5]: failed to reverse; effect of MK4 supplementation on inhibition of oxygen consumption [6]: failed to reverse
